Assay results as given in ChEMBL document CHEMBL5338806, “Rationally Designed Nonapeptides with Great Skin Photoprotective Effect through Producing Type 1 Collagen and Blocking the mTOR Pathway” (J Med Chem, 2023).
The source made the active and inactive calls. Where a SMILES comes first, the peptide text is derived from it.

Assays:
[1] = Antioxidant activity assessed as ABTS radical scavenging activity at 80 ug/mL incubated for 10 mins by absorbance based assay; type: functional; conditions: dose 80.0 µg/ml
[2] = Antioxidant activity assessed as ROS scavenging activity; type: functional
HEK293 = experiment: Activation of COL1a2 transcriptional activity in HEK293 cells by dual-luciferase reporter assay; type: functional, cell-based; conditions: Homo sapiens
Mus musculus [3] = experiment: Protection against UV radiation-stress induced skin damage in Kunming mouse model assessed as repair of broken skin at 20 ug/ml administered topically and measured every 2 days for 10 days; type: functional, organism-based; conditions: dose 20.0 µg/ml, route top, time 10.0 day
[4] = Antioxidant activity assessed as DPPH radical scavenging activity by measuring eradication rate at 80 ug/mL incubated for 30 mins by absorbance based assay relative to control; type: functional; conditions: dose 80.0 µg/ml
HFF-1 [5] = experiment: Cytotoxicity against HFF-1 cells upto 160 ug/mL incubated for 24 hrs by MTT assay; type: toxicity, cell-based; conditions: human, hff-1, 24 h, up to 160 µg/mL
HFF-1 [6] = experiment: Protection against H2O2-induced SIPS HFF-1 cell model assessed as reduction in cell senescence at 5 to 25 ug/mL pretreated for 24 hrs followed by irritation with H2O2 for 2 hrs by SA-beta-Gal staining assay; type: functional, cell-based; conditions: Homo sapiens, dose 5-25 µg/ml, time 26.0 hrs
Mus musculus [7] = experiment: In vivo anti-skin aging activity against UV-induced SIPS Kunming mouse model assessed as restoration of skin elasticity at 100 ug/ml administered topically for 5 weeks in presence of propylene glycol; type: functional, organism-based; conditions: dose 100.0 µg/ml, route top
HFF-1 [8] = experiment: Antioxidant activity against UV-A-induced SIPS HFF-1 cell model assessed as recovery of CAT level at 5 to 25 ug/mL pretreated with compound followed by 10.8 J/cm^2 UV-A irradiation; type: functional, cell-based; conditions: Homo sapiens, dose 5-25 µg/ml
HFF-1 [9] = experiment: Upregulation of COL-1 expression in UV-A-induced SIPS HFF-1 cell model pretreated with compound for 24 hrs followed by 10.8 J/cm^2 UV-A irradiation by Western blot analysis; type: functional, cell-based; conditions: Homo sapiens, dose 5-25 µg/ml
Erythrocyte = experiment: Hemolytic activity in human erythrocytes assessed as release of hemoglobin at 10 to 160 ug/ml; type: toxicity, cell-based; conditions: dose 10-160 µg/ml
Mus musculus [10] = experiment: In vivo anti-skin aging activity against UV-induced SIPS Kunming mouse model assessed as upregulation of skin elasticity at 100 ug/ml administered topically and measured for 10 weeks in presence of propylene glycol; type: functional, organism-based; conditions: dose 100.0 µg/ml, route top
HFF-1 [11] = experiment: Protection against UV-A/H2O2-stress induced premature senescence HFF-1 cell model assessed as cell migration by measuring cellular repair activity at 10 ug/mL upto 24 hrs by inverted microscopic based cell scratch assay; type: functional; conditions: Homo sapiens, dose 10.0 µg/ml
[12] = Toxicity in Wistar rat mast cell assessed as cell degranulation by measuring beta-hexosaminidase release at 160 ug/mL incubated for 15 mins by fluorescence based analysis (reference value: 20.13 +/- 1.40 %); conditions: 0.25 h, at 160 µg/mL
Mus musculus [13] = experiment: In vivo anti-skin aging activity against UV-induced SIPS Kunming mouse model assessed as restoration of dorsal skin thickness at 100 ug/ml administered topically for 5 weeks in presence of propylene glycol by caliper method; type: functional, organism-based; conditions: dose 100.0 µg/ml, route top
Mus musculus [14] = experiment: In vivo anti-skin aging activity against UV-induced SIPS Kunming mouse model assessed as prevention of wrinkle and erythema formation at 100 ug/ml administered topically and measured for 10 weeks in presence of propylene glycol by macroscopic analysis; type: functional, organism-based; conditions: dose 100.0 µg/ml, route top
HFF-1 [15] = experiment: Inhibition of H2O2-stimulated TNF-alpha production in SIPS HFF-1 cell model pre-incubated with compound for 12 hrs followed by H2O2 stimulation for 60 mins by ELISA method; type: functional, cell-based; conditions: Homo sapiens, dose 5-25 µg/ml, time 13.0 hrs
HFF-1 [16] = experiment: Inhibition of H2O2-induced AKT phosphorylation in HFF-1 cells at 5 to 25 ug/mL pretreated with compound for 24 hrs followed by H2O2 exposure for 2 hrs by Western blot analysis; type: cell-based; conditions: Homo sapiens, dose 5-25 µg/ml, time 26.0 hrs
HFF-1 [17] = experiment: Downregulation of MMP-1 expression in UV-A-induced SIPS HFF-1 cell model pretreated with compound for 24 hrs followed by 10.8 J/cm^2 UV-A irradiation by Western blot analysis; type: functional, cell-based; conditions: Homo sapiens, dose 5-25 µg/ml
[18] = Toxicity in Wistar rat mast cell assessed as cell degranulation by measuring increase in beta-hexosaminidase release at 40 ug/mL incubated for 15 mins by fluorescence based analysis (reference value: 0 +/- 1.40 %); conditions: 0.25 h, at 40 µg/mL
Mus musculus [19] = experiment: In vivo anti-skin aging activity against UV-induced SIPS Kunming mouse model assessed as increase in Skin-fold thickness of dorsal skin at 100 ug/ml administered topically and measured for 10 weeks in presence of propylene glycol by caliper method; type: functional, organism-based; conditions: dose 100.0 µg/ml, route top
[20] = Antioxidant activity assessed as ABTS radical scavenging activity in presence of 400 mM NaCl; type: functional
[21] = Stability of compound in human serum assessed as protease mediated degradation at 2 mg/mL incubated for 24 hrs by RP-HPLC analysis; type: ADME, cell-free
[22] = target: Ribosomal protein S6 kinase (Homo sapiens) (UniProt P51812+Q9UBS0+O75676+Q15349+O75582+P23443+Q9UK32+Q15418); experiment: Inhibition of H2O2-induced S6K phosphorylation in HFF-1 cells at 5 to 25 ug/mL pretreated with compound for 24 hrs followed by H2O2 exposure for 2 hrs by Western blot analysis; type: cell-based; conditions: dose 5-25 µg/ml, time 26.0 hrs
HFF-1 [23] = experiment: Antioxidant activity against UV-A-induced SIPS HFF-1 cell model assessed as recovery of SOD level at 5 to 25 ug/mL pretreated with compound followed by 10.8 J/cm^2 UV-A irradiation; type: functional, cell-based; conditions: Homo sapiens, dose 5-25 µg/ml
HFF-1 [24] = experiment: Restoration of H2O2-induced mitochondrial membrane potential damage in SIPS HFF-1 cell model at 5 to 25 ug/mL incubated for 20 mins by JC-1 staining based fluorescence microscopic analysis; type: functional; conditions: Homo sapiens, dose 5-25 µg/ml
HFF-1 [25] = experiment: Inhibition of H2O2-stimulated IL-6 production in SIPS HFF-1 cell model pre-incubated with compound for 12 hrs followed by H2O2 stimulation for 60 mins by ELISA method; type: functional, cell-based; conditions: Homo sapiens, dose 5-25 µg/ml, time 13.0 hrs
HFF-1 [26] = experiment: Induction of HFF-1 cell migration at 10 ug/mL measured for 2 to 8 hrs by transwell migration assay; type: functional, cell-based; conditions: Homo sapiens, dose 10.0 µg/ml, time 2-8 hrs
HFF-1 [27] = experiment: Induction of autophagy in H2O2-induced SIPS HFF-1 cell model assessed as phosphorylated AMPK expression at 5 to 25 ug/mL pretreated with compound for 24 hrs followed by H2O2 exposure for 2 hrs by Western blot analysis; type: functional, cell-based; conditions: Homo sapiens, dose 5-25 µg/ml, time 26.0 hrs
[28] = Toxicity in Wistar rat mast cell assessed as cell degranulation by measuring beta-hexosaminidase release at 40 ug/mL incubated for 15 mins by fluorescence based analysis (reference value: 20.13 +/- 1.40 %); conditions: 0.25 h, at 40 µg/mL
HFF-1 [29] = experiment: Inhibition of H2O2-stimulated IL-1beta production in SIPS HFF-1 cell model pre-incubated with compound for 12 hrs followed by H2O2 stimulation for 60 mins by ELISA method; type: functional, cell-based; conditions: Homo sapiens, dose 5-25 µg/ml, time 13.0 hrs
[30] = Toxicity in Wistar rat mast cell assessed as cell degranulation by measuring increase in beta-hexosaminidase release at 160 ug/mL incubated for 15 mins by fluorescence based analysis (reference value: 0 +/- 1.40 %); conditions: 0.25 h, at 160 µg/mL
HFF-1 [31] = experiment: Inhibition of H2O2-induced AKT activation in HFF-1 cells assessed as downregulation of mTOR phosphorylation at 5 to 25 ug/mL pretreated with compound for 24 hrs followed by H2O2 exposure for 2 hrs by Western blot analysis; type: cell-based; conditions: Homo sapiens, dose 5-25 µg/ml, time 26.0 hrs
HFF-1 [32] = experiment: Inhibition of intracellular ROS level in UV-A-induced SIPS HFF-1 cell model assessed as reduction in ROS level pretreated with compound for 24 hrs followed by 10.8 J/cm^2 UV-A irritation incubated for 30 mins under dark condition by DCFH-DA staining based flow cytometry analysis; type: functional; conditions: Homo sapiens, dose 5-50 µg/ml, time 24.5 hrs
HFF-1 [33] = experiment: Induction of autophagy in H2O2-induced SIPS HFF-1 cell model assessed as beclin-1 expression at 5 to 25 ug/mL pretreated with compound for 24 hrs followed by H2O2 exposure for 2 hrs by Western blot analysis; type: functional, cell-based; conditions: Homo sapiens, dose 5-25 µg/ml, time 26.0 hrs
[34] = Toxicity in Wistar rat mast cell assessed as cell degranulation by measuring increase in beta-hexosaminidase release at 10 ug/mL incubated for 15 mins by fluorescence based analysis (reference value: 0 +/- 1.40 %); conditions: 0.25 h, at 10 µg/mL
HFF-1 [35] = experiment: Induction of autophagy in H2O2-induced SIPS HFF-1 cell model assessed as p62 expression at 5 to 25 ug/mL pretreated with compound for 24 hrs followed by H2O2 exposure for 2 hrs by Western blot analysis; type: functional, cell-based; conditions: Homo sapiens, dose 5-25 µg/ml, time 26.0 hrs
[36] = target: Nuclear factor NF-kappa-B complex (Homo sapiens) (UniProt Q00653+P19838+Q04206); experiment: Inhibition of NF-kappaB activation in HFF-1 cells assessed as suppression of UV-A-induced IkappaBalpha degradation at 5 to 25 ug/mL pretreated with compound for 24 hrs followed by 10.8 J/cm^2 UV-A irradiation by Western blot analysis; type: cell-based; conditions: dose 5-25 µg/ml
[37] = Antioxidant activity assessed as ABTS radical scavenging activity in presence of 50 mM NaCl; type: functional
[38] = Thermal stability of compound by measuring retention of ABTS radical scavenging activity at 2 mg/mL at 37 degC for 96 hrs; type: physicochemical
[39] = Toxicity in Wistar rat mast cell assessed as cell degranulation by measuring beta-hexosaminidase release at 10 ug/mL incubated for 15 mins by fluorescence based analysis (reference value: 20.13 +/- 1.40 %); conditions: 0.25 h, at 10 µg/mL
Mus musculus [40] = experiment: In vivo anti-skin aging activity against UV-induced SIPS Kunming mouse model assessed as repair of wrinkled skin at 100 ug/ml administered topically for 5 weeks in presence of propylene glycol by macroscopic analysis; type: functional, organism-based; conditions: dose 100.0 µg/ml, route top
HFF-1 [41] = experiment: Induction of autophagy in H2O2-induced SIPS HFF-1 cell model assessed as ratio of LC3BII/LC3BI levels at 5 to 25 ug/mL pretreated with compound for 24 hrs followed by H2O2 exposure for 2 hrs by Western blot analysis; type: functional, cell-based; conditions: Homo sapiens, dose 5-25 µg/ml, time 26.0 hrs

Sequence of Nuclear factor NF-kappa-B complex (Homo sapiens) (P19838 whole entry, looked up): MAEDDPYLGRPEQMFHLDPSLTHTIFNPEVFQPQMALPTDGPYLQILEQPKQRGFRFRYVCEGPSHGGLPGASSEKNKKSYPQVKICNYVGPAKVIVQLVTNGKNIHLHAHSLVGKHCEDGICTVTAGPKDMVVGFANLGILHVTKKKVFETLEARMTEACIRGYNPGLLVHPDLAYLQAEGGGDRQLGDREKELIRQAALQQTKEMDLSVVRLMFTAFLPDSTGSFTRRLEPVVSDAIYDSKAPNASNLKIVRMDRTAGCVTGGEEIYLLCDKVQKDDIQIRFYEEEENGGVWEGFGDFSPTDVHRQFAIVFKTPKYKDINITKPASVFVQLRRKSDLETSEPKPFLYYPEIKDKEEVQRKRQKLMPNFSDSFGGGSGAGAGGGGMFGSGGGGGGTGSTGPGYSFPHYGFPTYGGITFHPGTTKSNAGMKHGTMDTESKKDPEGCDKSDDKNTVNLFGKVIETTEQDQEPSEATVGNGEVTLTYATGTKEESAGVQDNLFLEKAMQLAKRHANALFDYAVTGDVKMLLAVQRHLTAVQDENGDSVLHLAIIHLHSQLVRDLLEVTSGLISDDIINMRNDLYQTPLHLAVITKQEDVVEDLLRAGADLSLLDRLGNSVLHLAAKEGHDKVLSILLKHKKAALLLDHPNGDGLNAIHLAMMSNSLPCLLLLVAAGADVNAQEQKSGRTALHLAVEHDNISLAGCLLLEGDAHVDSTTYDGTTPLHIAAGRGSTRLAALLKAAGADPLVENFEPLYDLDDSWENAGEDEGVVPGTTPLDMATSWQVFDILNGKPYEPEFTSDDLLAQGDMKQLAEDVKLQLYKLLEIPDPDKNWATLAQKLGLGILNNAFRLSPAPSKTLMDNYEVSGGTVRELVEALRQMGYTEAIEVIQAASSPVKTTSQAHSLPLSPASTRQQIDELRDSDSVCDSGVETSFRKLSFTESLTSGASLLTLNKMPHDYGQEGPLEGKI
Sequence of Nuclear factor NF-kappa-B complex (Homo sapiens) (Q00653 whole entry, looked up): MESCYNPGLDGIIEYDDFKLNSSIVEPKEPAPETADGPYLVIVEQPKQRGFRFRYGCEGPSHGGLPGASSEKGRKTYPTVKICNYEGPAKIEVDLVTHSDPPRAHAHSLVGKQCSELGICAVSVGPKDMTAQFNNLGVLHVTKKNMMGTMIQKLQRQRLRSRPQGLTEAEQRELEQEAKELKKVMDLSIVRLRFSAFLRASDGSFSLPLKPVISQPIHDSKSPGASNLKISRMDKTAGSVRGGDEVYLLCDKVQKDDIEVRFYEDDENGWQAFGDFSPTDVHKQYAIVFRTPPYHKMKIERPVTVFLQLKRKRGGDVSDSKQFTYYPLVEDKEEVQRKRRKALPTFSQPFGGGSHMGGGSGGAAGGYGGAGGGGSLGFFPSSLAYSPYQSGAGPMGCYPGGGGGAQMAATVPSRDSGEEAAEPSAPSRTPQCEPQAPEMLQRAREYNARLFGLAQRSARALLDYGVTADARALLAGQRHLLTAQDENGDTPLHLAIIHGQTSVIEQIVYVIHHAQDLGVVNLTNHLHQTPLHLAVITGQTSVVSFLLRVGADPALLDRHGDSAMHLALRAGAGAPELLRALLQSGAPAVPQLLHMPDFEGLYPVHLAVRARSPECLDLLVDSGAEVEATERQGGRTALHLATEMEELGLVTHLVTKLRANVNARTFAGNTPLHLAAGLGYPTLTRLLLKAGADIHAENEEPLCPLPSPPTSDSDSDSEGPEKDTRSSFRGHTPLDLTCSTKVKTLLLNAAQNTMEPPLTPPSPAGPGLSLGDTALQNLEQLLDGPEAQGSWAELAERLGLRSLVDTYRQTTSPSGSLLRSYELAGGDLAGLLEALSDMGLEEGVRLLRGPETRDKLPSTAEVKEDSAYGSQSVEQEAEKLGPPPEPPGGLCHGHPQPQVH
Sequence of Nuclear factor NF-kappa-B complex (Homo sapiens) (Q04206 whole entry, looked up): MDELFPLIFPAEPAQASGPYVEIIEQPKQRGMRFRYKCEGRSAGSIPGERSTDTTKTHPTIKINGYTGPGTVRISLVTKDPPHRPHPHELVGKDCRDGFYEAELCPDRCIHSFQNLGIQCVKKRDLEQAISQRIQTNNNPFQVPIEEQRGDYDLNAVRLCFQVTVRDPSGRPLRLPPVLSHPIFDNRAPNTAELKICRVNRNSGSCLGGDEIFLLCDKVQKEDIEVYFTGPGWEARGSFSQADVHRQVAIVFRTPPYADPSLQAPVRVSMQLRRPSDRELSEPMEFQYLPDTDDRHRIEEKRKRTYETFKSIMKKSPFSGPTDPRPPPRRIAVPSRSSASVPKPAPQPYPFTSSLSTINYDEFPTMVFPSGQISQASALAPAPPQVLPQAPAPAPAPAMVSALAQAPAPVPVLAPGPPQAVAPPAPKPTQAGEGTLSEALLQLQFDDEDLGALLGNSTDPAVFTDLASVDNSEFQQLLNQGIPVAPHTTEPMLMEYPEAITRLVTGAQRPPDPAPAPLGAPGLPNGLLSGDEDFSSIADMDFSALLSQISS

CC(C)[C@H](N)C(=O)N[C@H](C(=O)N[C@@H](CS)C(=O)N1CCC[C@H]1C(=O)N[C@@H](CCCCN)C(=O)O)C(C)C (H-VVCPK-OH)
active: Activity [1] | Activity [2] | Activity (HEK293)

CC(C)[C@H](N)C(=O)N[C@H](C(=O)N[C@@H](CCCCN)C(=O)N[C@@H](CS)C(=O)N1CCC[C@H]1C(=O)N[C@@H](CCCCN)C(=O)O)C(C)C (H-VVKCPK-OH)
active: Activity (Mus musculus [3]) | Activity [2] | Activity (HEK293)
85.4%: Activity [4]

CC(C)[C@H](N)C(=O)N[C@H](C(=O)N1CCC[C@H]1C(=O)N1CCC[C@H]1C(=O)N[C@@H](CS)C(=O)N[C@@H](CCCCN)C(=O)O)C(C)C (H-VVPPCK-OH)
active: Activity [2]
2.84%: Activity (HFF-1 [5])

CC(C)[C@H](N)C(=O)N[C@H](C(=O)N1CCC[C@H]1C(=O)N[C@H](C(=O)N[C@H](C(=O)N[C@H](C(=O)N[C@@H](CS)C(=O)N1CCC[C@H]1C(=O)N[C@@H](CCCCN)C(=O)O)C(C)C)C(C)C)[C@@H](C)O)C(C)C (H-VVPTVVCPK-OH)
26.03%: Activity [12]
Active: Activity [38]
21.4%: Activity [39]
5.9%: Activity [30]
23.14%: Activity [28]
5.14%: Activity (HFF-1 [5])
3.01%: Activity [18]
active: Activity (HFF-1 [6]) | Activity (Mus musculus [7]) | Activity (HFF-1 [8]) | Activity (HFF-1 [9]) Dose-Dependent Effect | Activity (Mus musculus [10]) | Activity (HFF-1 [11]) | Activity (Mus musculus [13]) | Activity (Mus musculus [14]) | inhibition (HFF-1 [15]) Dose-Dependent Effect | inhibition (HFF-1 [16]) | Activity (Mus musculus [3]) | Activity (HFF-1 [17]) Dose-Dependent Effect | Activity (Mus musculus [19]) | Activity [20] | inhibition [22] | Activity (HFF-1 [23]) | Activity (HFF-1 [24]) | inhibition (HFF-1 [25]) Dose-Dependent Effect | Activity (HFF-1 [26]) | Activity (HFF-1 [27]) | inhibition (HFF-1 [29]) Dose-Dependent Effect | Activity [2] | Activity (HEK293) | inhibition (HFF-1 [31]) | inhibition (HFF-1 [32]) Dose-Dependent Effect | Activity (HFF-1 [33]) | Activity (HFF-1 [35]) | Activity [36] | Activity [37] | Activity (Mus musculus [40]) | Activity (HFF-1 [41])
Non-Toxic: Activity (Erythrocyte)
Stable: Stability [21]
1.27%: Activity [34]
